In experiment [1] the test system is serotonin; compound 48/80-induced gastric lesions. As to the kind of experiment: Antagonistic activity on the effects of serotonin in the gastric lesion test (lesions induced by compound 48/80). It counts as in vivo, Male rats of a Wistar inbred strain. On the procedure: Antagonistic activity on the effects of serotonin in the gastric lesion test
Male rats of a Wistar inbred strain, weighing 220-250 g, were starved overnight, water being available ad libitum. The test compounds were administered orally as a solution or as a suspension in aqueous medium. A control rat and a "blank" rat received the test compound. One hour later 5-[4-(diphenylmethyl)-1-piperazinylmethyl]-1-methyl-1H-benzimidazole-2-methanol was administered subcutaneously to all rats at the dose of 2.5 mg/kg.
Four hours after the intravenous injection of compound 48/80, the rats were decapitated and the stomachs were removed. Subsequently the stomachs were inspected for distension and contents (blood, fluid, food) and thoroughly rinsed. The macroscopic lesions were scored from 0 to +++, 0 corresponding to complete absence of visible lesions and the highest score corresponding to reddish rough patches covering more than half the glandular area.

Experiment [2] relates to compound 48/80-induced lethality. Put plainly: Protection of rats from compound 48/80-induced lethality. Type of experiment: in vivo, Male rats of an inbred Wistar strain. To be noted: for ED50: Rattus norvegicus, 4 h, read-out: compound 48/80 lethality test rats-ED50. On the procedure:
Protection of rats from compound 48/80-induced lethality
The protection from compound 48/80-induced lethal circulatory collapse appears to be a simple way of evaluating quantitatively the antihistaminic activity of test compounds. Male rats of an inbred Wistar strain, weighing 240-260 g were used in the experiment. After overnight starvation the rats were transferred to conditioned laboratories (temp.=21±1° C., relative humidity-65±5%).
The rats were treated subcutaneously or orally with a test compound or with the solvent (NaCl solution, 0.9%). […] Survival after 4 hours is therefore considered to be a safe criterion of a protective effect of drug administration.
The ED50 -values of the compounds of formula (I) and the intermediates of formula (XVIII) are listed in the first column of table 1 and table 2. Said ED50 -values are the values in mg/kg body weight at which the tested compounds protect 50% of the tested animals against compound 48/80-induced lethality.

Setting [3] is: Rattus norvegicus, po; read-out: gastric lesion test ED50.
[4] abbreviates: Rattus norvegicus, po, read-out: gastric lesion test ED50.

Read-outs that look alike come from different tables or passages of the source.

As for `Cc1ccc(Cn2c(NC3CCN(CCNc4ncccn4)CC3)nc3ccccc32)o1` [Compound 21], the values for the ED50 in experiment [1] (setting [3]) and in experiment [2] were 0.63 mg/kg and 0.04 mg/kg, respectively.
For `Fc1ccc(Cn2c(NC3CCN(CCN(Cc4ccccc4)c4ncccn4)CC3)nc3ccccc32)cc1` [Compound 8], in that order: 0.63 mg/kg and 0.63 mg/kg.
For `Nc1nccnc1C(=O)NCCN1CCC(Nc2nc3ccccc3n2Cc2ccc(F)cc2)CC1` [Compound 113, 3-amino-N-[2-[4-[[1-[(4-fluorophenyl)methyl]-1H-benzimidazol-2-yl]amino]-1-piperidinyl]ethyl]-2-pyrazinecarboxamide], in that order: 0.16 mg/kg and 0.04 mg/kg.
On to `Fc1ccc(Cn2c(NC3CCN(C4CCCN(c5ncccn5)C4)CC3)nc3ccccc32)cc1` (stereo not shown) [Compound 12], for which the values for the ED50 in experiment [1] (setting [3]) and in experiment [2] were 2.5 mg/kg and 1.25 mg/kg, respectively.
For the molecule “3[(4-fluorophenyl)methyl]-N-[1-[2-[(2-pyridinyl)amino]ethyl]-4-piperidinyl]-3H-imidazo[4,5-b]pyridin-2-amine [Compound 23]”, the “gastric lesion test ED50” value in experiment [1] (rats, oral, 2 h before compound 48/80 1 mg/kg i.v.; stomach distension and glandular lesions completely absent in 50% of rats) worked out at 0.08 mg/kg body weight. In addition, the “compound 48/80 lethality test rats-ED50” value in experiment [2] (rats, subcutaneous or oral, 1 h before compound 48/80 0.5 mg/kg i.v., 50% protected, survival after 4 h) stood at 0.04 mg/kg body weight.
In the case of `Fc1ccc(Cn2c(NC3CCN(CCNc4ncccc4Cl)CC3)nc3cccnc32)cc1` [Compound 47], the ED50 in experiment [1] (setting [3]) was found to be 0.31 mg/kg; in experiment [2] it was 0.08 mg/kg.
In the same order, the values of `Fc1ccc(Cn2c(NC3CCN(CCOCc4ccccn4)CC3)nc3ccccc32)cc1.O=C(O)/C=C/C(=O)O.O=C(O)/C=C/C(=O)O` [Compound 84, 1-[(4-fluorophenyl)methyl]-N-[1-[2-(2-pyridinylmethoxy)ethyl]-4-piperidinyl]-1H-benzimidazol-2-amine (E)-2-butenedioate (1:2)] are 2.5 mg/kg and 0.08 mg/kg.
For `Fc1ccc(Cn2c(NC3CCN(CCSc4ncccn4)CC3)nc3ccccc32)cc1` [Compound 91, 1-[(4-fluorophenyl)methyl]-N-[1-[2-(2-pyrimidinylthio)ethyl]-4-piperidinyl]-1H-benzimidazol-2-amine], in that order: 0.16 mg/kg and 0.16 mg/kg.
Regarding `Cc1cc(NCCN2CCC(Nc3nc4ccccc4n3Cc3ccc(F)cc3)CC2)nc(Cl)n1` [Compound 61, N-[1-[2-[(2-chloro-6-methyl-4-pyrimidinyl)amino]ethyl]-4-piperidinyl]-1-[(4-fluorophenyl)methyl]-1H-benzimidazol-2-amine], the ED50 in experiment [1] (setting [3]) came to 2.5 mg/kg; in experiment [2], 0.08 mg/kg.
As to `O=[N+]([O-])c1ccc(NCCN2CCC(Nc3nc4ccccc4n3Cc3ccc(F)cc3)CC2)nc1` [Compound 13], the ED50 in experiment [1] (setting [3]) is 2.5 mg/kg; in experiment [2] it was 0.31 mg/kg.
`O=c1ccnc(NCCN2CCC(Nc3nc4ccccc4n3Cc3ccc(F)cc3)CC2)[nH]1` [Compound 87]: the ED50 came to 0.63 mg/kg in experiment [1] (setting [3]) and 0.08 mg/kg in experiment [2].
`Cc1ccc(Cn2c(NC3CCN(CCNc4ccc(Br)cn4)CC3)nc3ccccc32)cc1` [Compound 51]: the ED50 in experiment [1] (setting [4]) turned out to be 0.08 mg/kg; in experiment [2], 0.02 mg/kg.
Turning to `Fc1ccc(Cn2c(NC3CCN(C4CCN(c5ccccn5)CC4)CC3)nc3ccccc32)cc1` [Compound 97, N-[1-[(4-fluorophenyl)methyl]-1H-benzimidazol-2-yl]-1'-(2-pyridinyl)-[1,4'-bipiperidin]-4-amine (E)-2-butenedioate (2:3) monohydrate], the ED50 in experiment [1] (setting [3]) turned out to be 2.5 mg/kg; in experiment [2], 0.63 mg/kg.
Turning to `c1cnc(NCCN2CCC(Nc3nc4ccccc4n3Cc3cnccn3)CC2)nc1` [Compound 18], the ED50 in experiment [1] (setting [3]) amounted to 0.63 mg/kg; in experiment [2], 0.01 mg/kg.
In the same order, the values of `O=C(c1ccccc1)N(CCN1CCC(Nc2nc3ccccc3n2Cc2ccc(F)cc2)CC1)c1ncccn1` [Compound 100, N-[2-[4-[[1-fluorophenyl)methyl]-1H-benzimidazol-2-yl]amino]-1-piperidinyl]ethyl]-N-(2-pyrimidinyl)benzamide (E)-2-butenedioate (1:2)] are 0.63 mg/kg and 0.08 mg/kg.
For `Cl.Cl.Cl.Fc1ccc(Cn2c(NC3CCN(CCCNc4ccc(Cl)cn4)CC3)nc3ccccc32)cc1.O` [Compound 30, N-[1-[3-[(5-chloro-2-pyridinyl)amino]propyl]-4-piperidinyl]-1-[(4-fluorophenyl)methyl]-1H-benzimidazol-2-amine trihydrochloride monohydrate], the ED50 in experiment [1] (setting [3]) is 2.5 mg/kg; in experiment [2], 0.63 mg/kg.
As to `c1cnc(NCCN2CCC(Nc3nc4cccnc4n3Cc3ccco3)CC2)nc1` [Compound 28, 3-(2-furanylmethyl)-N-[1-[2-(2-pyrimidinylamino)ethyl]-4-piperidinyl]-3H-imidazo[4,5-b]pyridin-2-amine], the ED50 in experiment [1] (setting [3]) was 0.63 mg/kg; in experiment [2] it was 0.04 mg/kg.
In the case of `Cc1ccc(Cn2c(NC3CCN(CCNc4ncccn4)CC3)nc3ccccc32)cc1` [Compound 67, 1-[(4-methylphenyl)methyl]-N-[1-[2-[(2-pyrimidinyl)amino]ethyl]-4-piperidinyl]-1H-benzimidazol-2-amine], the ED50 in experiment [1] (setting [4]) stood at 0.63 mg/kg; in experiment [2], 0.16 mg/kg.
For `CSc1nccc(OCCN2CCC(Nc3nc4ccccc4n3Cc3ccc(F)cc3)CC2)n1` [Compound 79, 1-[(4-fluorophenyl)methyl]-N-[1-[2-[[2-(methylthio)-4-pyrimidinyl]oxy]ethyl]-4-piperidinyl]-1H-benzimidazol-2-amine], the values for the ED50 in experiment [1] (setting [3]) and in experiment [2] were 2.5 mg/kg and 0.16 mg/kg, respectively.
In the same order, the values of `Fc1ccc(Cn2c(NC3CCN(CCNc4ccc(Br)cn4)CC3)nc3ccccc32)cc1` [Compound 39] are 2.5 mg/kg and 0.31 mg/kg.
In the case of `Clc1ccc(Cn2c(NC3CCN(CCNc4ncccn4)CC3)nc3ccccc32)cc1` [Compound 68, 1-[(4-chlorophenyl)methyl]-N-[1-[2-(2-pyrimidinylamino)ethyl]-4-piperidinyl]-1H-benzimidazol-2-amine], the ED50 in experiment [1] (setting [3]) came to 2.5 mg/kg; in experiment [2] it was 0.16 mg/kg.
Consider `Fc1ccc(Cn2c(NC3CCN(CCCCCNc4ncccn4)CC3)nc3ccccc32)cc1` [Compound 22], for which the ED50 in experiment [1] (setting [4]) came to 0.08 mg/kg; in experiment [2] it was 0.31 mg/kg.
As to `Fc1ccc(Cn2c(NC3CCN(CCNc4cnccn4)CC3)nc3ccccc32)cc1` [Compound 33], the ED50 was found to be 2.5 mg/kg in experiment [1] (setting [3]) and 0.16 mg/kg in experiment [2].
In the case of `Fc1ccc(Cn2c(NC3CCN(CCNC(=S)Nc4ccccn4)CC3)nc3ccccc32)cc1` [Compound 105, N-[2-[4-[[1-[(4-fluorophenyl)methyl]-1H-benzimidazol-2-yl]amino]-1-piperidinyl]ethyl]-N'-(2-pyridinyl)thiourea], the ED50 in experiment [1] (setting [3]) and in experiment [2] was 0.63 mg/kg in each case.
Consider `Fc1ccc(Cn2c(NC3CCN(CCOc4ccc5ccccc5n4)CC3)nc3ccccc32)cc1` [Compound 77, 1-[(4-fluorophenyl)methyl]-N-[1-[2-(2-quinolinyloxy)ethyl]-4-piperidinyl]-1H-benzimidazol-2-amine], for which the results for the ED50 in experiment [1] (setting [3]) and in experiment [2] were 2.5 mg/kg and 1.25 mg/kg, respectively.
On to `Fc1ccc(Cn2c(NC3CCN(CCCCNc4ncccn4)CC3)nc3ccccc32)cc1` [Compound 2], for which the ED50 in experiment [1] (setting [3]) stood at 2.5 mg/kg; in experiment [2], 0.16 mg/kg.
For `Nc1cccnc1NC(=S)NCCN1CCC(Nc2nc3ccccc3n2Cc2ccc(F)cc2)CC1` [Compound 107, N-(3-amino-2-pyridinyl)-N'-[2-[4-[[1-[(4-fluorophenyl)methyl]-1H-benzimidazol-2-yl]amino]-1-piperidinyl]ethyl]thiourea], in that order: 0.31 mg/kg and 0.16 mg/kg.
For the molecule `Fc1ccc(Cn2c(NC3CCN(CCNC(=S)Nc4cccnc4)CC3)nc3ccccc32)cc1` [Compound 104, N-[2-[4-[[1-[(4-fluorophenyl)methyl]-1H-benzimidazol-2-yl]amino]-1-piperidinyl]ethyl]-N'-(3-pyridinyl)thiourea], the ED50 in experiment [1] (setting [3]) and in experiment [2] was 0.63 mg/kg throughout.
As to `NC(=O)c1cccnc1NCCN1CCC(Nc2nc3ccccc3n2Cc2ccco2)CC1` [Compound 46], the ED50 in experiment [1] (setting [3]) was found to be 0.63 mg/kg; in experiment [2], 0.04 mg/kg.
For `Cc1cc(=O)[nH]c(NCCN2CCC(Nc3nc4ccccc4n3Cc3ccc(F)cc3)CC2)n1` [Compound 90], the ED50 worked out at 0.63 mg/kg in experiment [1] (setting [3]) and 0.16 mg/kg in experiment [2].
Regarding `c1ccc(Cn2c(NC3CCN(CCNc4ncccn4)CC3)nc3ccccc32)cc1` [Compound 65, 1-(phenylmethyl)-N-[1-[2-[(2-pyrimidinyl)amino]ethyl]-4-piperidinyl]-1H-benzimidazol-2-amine], the ED50 turned out to be 0.31 mg/kg in experiment [1] (setting [3]) and 0.08 mg/kg in experiment [2].
For the molecule `OCCN1CCC(Nc2nc3ncccc3n2Cc2ccc(F)cc2)CC1` [CH2 CH2 OH 4-FC6 H4 CH2 -- 4 base], the figures for the ED50 in experiment [1] (setting [3]) and in experiment [2] were 0.63 mg/kg and 0.01 mg/kg, respectively.

The record behind these values is patent publication US4556660A, “N-(Bicyclic heterocyclyl)-4-piperidinamines” (Janssen Pharmaceutica N.V., priority 1983, dated 1985).
